The values that follow come from patent US7566718B2, “Amine-linked pyridyl and phenyl substituted piperazine-piperidines with CXCR3 antagonist activity” (Schering Corporation, priority 2005, dated 2009).

This assay has as its target T1, human CXCR3 (N-delta 4) (Homo sapiens, UniProt P49682).
T1 construct: CD8 leader (N); Flag tag; expressed in transfected cells; membrane preparation
T1 sequence (P49682 5-368 limits assumed): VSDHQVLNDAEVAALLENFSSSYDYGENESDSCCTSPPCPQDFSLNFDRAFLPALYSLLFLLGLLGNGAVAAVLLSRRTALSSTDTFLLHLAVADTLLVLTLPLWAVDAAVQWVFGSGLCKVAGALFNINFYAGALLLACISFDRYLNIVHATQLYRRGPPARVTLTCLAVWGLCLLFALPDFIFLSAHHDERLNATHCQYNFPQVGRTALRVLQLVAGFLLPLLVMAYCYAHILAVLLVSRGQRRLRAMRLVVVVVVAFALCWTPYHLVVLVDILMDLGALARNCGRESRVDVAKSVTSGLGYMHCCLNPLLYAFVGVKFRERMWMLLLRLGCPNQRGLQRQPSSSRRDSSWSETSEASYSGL
Kind of assay: Human CXCR3 (N-delta 4) scintillation proximity assay (SPA), [125I] IP-10 binding to Ba/F3-hCXCR3 membranes. From the text:
The inventive compounds can readily be evaluated to determine activity at the CXCR3 receptors by known methods, such as, for example, development of a human CXCR3 (N-delta 4) Binding Assay.
The DNA encoding human CXCR3 was cloned by PCR using human genomic DNA (Promega, Madison, Wis.) as a template. The PCR primers were designed based on the published sequence of human orphan receptor GPR9 (1) with incorporated restriction sites, a Kozak consensus sequence, CD8 leader and Flag tag. The PCR product was subcloned into the mammalian expression vector pME18Sneo, a derivative of the SR-alpha expression vector (designated as pME18Sneo-hCXCR3 (N-delta 4).
IL-3-dependent mouse pro-B cells Ba/F3 were transfected by electroporation in 0.4 ml Dulbecco's PBS containing 4×10^6 cells with 20 μg of pME18Sneo-hCXCR3 (N-delta 4) plasmid DNA. Cells were pulsed at 400 Volts, 100 OHMs, 960 μFd. The transfected cells were under selection with 1 mg/ml G418 (Life Technologies, Gaithersburg, Md.). G418-resistant Ba/F3 clones were screened for CXCR3 expression by specific binding of [^125I] IP-10 (NEN Life Science Products, Boston, Mass.).
Ba/F3 cells expressing human CXCR3 (N-delta 4) were pelleted and resuspended in the lysis buffer containing 10 mM HEPES, pH 7.5 and Complete® protease inhibitors (1 tablet per 100 ml) (Boehringer Mannheim, Indianapolis, Ind.) at a cell density of 20×10^6 cells per ml. After 5 minute incubation on ice, cells were transferred to 4639 cell disruption bomb (Parr Instrument, Moline, Ill.) and applied with 1,500 psi of nitrogen for 30 minutes on ice. Large cellular debris was removed by centrifugation at 1,000×g. Cell membrane in the supernatant was sedimented at 100,000×g. The membrane was resuspended in the lysis buffer supplemented with 10% sucrose and stored at −80° C. Total protein concentration of the membrane was determined by BCA method from Pierce (Rockford, Ill.).
Human CXCR3 (N-Delta 4) Scintillation Proximity Assay (SPA):
For each assay point, 2 μg of membrane was preincubated for 1 hr with 300 μg wheat germ agglutinin (WGA) coated SPA beads (Amersham, Arlington Heights, Ill.) in the binding buffer (50 mM HEPES, 1 mM CaCl2, 5 mM MgCl2, 125 mM NaCl, 0.002% NaN3, 1.0% BSA) at room temperature. The beads were spun down, washed once, resuspended in the binding buffer and transferred to a 96-well Isoplate (Wallac, Gaithersburg, Md.). 25 pM of [^125I] IP-10 with tested compounds in a series of titration were added to start the reaction. After 3 hr reaction at room temperature, the amount of [^125I] IP-10 bound to the SPA beads was determined with a Wallac 1450 Microbeta counter.
A general note: SPA uses beads or plates that emit light when radiolabelled molecules are held near them.

The mark [1] stands for this setting: IC50 rating, [125I] IP-10 displacement, human CXCR3, read-out: IC50.

Where two headings read alike, the source gives them in different places.

As usually defined, the IC50 is the concentration needed to halve the response being measured. Take `CC[C@H]1CN(c2ncc(NS(C)(=O)=O)cc2Cl)CCN1C1CCN([C@H](CO)c2ccc(Cl)cc2)CC1` [Compound 4]: under setting [1], the IC50 was less than 25 nM.
As for `CC[C@H]1CN(c2ccc(Nc3c(NC4CC4)c(=O)c3=O)cc2Cl)CCN1C1CCN(Cc2ccc(Cl)cc2F)CC1` [Compound 82], under setting [1], the IC50 is less than 25 nM.
The same measure, in the same setting: then `CC[C@H]1CN(c2ncc(Nc3c(NC4CCC4)c(=O)c3=O)cc2Cl)CCN1C1CCN(C(=O)c2ccc(Cl)cc2)CC1` [Compound 107], with 25 to 100 nM.
Turning to `CC[C@H]1CN(c2ncc(NS(C)(=O)=O)cc2Cl)CCN1C1CCN(Cc2ccc(C)cc2C)CC1` [Compound 20], under setting [1], the IC50 was less than 25 nM.
`CC[C@H]1CN(c2ncc(N(C)c3c(NC4CC4)c(=O)c3=O)cc2Cl)CCN1C1CCN([C@H](C(N)=O)c2ccc(Cl)cc2)CC1` [Compound 112]: the IC50 under setting [1] was 25 to 100 nM.
Same read-out and setting: the value for `CC[C@H]1CN(c2ncc(NC3=NS(=O)(=O)N=C3N(C)C)cc2Cl)CCN1C1CCN(Cc2ccc(Cl)cc2F)CC1` [Compound 237] was less than 25 nM; that for `CC[C@H]1CN(c2ncc(Nc3c(N4CCOCC4)c(=O)c3=O)cc2Cl)CCN1C1CCN(Cc2ccc(Cl)cc2F)CC1` [Compound 96] was less than 25 nM.
Consider `CC[C@H]1CN(c2ncc(NS(C)(=O)=O)cc2Cl)CCN1C1CCN(Cc2ccc(Cl)cc2C(=O)OC)CC1` [Compound 30], for which the IC50 under setting [1] lay within 25 to 100 nM.
For `CC[C@H]1CN(c2ncc(NS(C)(=O)=O)cc2Cl)CCN1C1CCN(Cc2ccc(N(C)C)cc2)CC1` [Compound 45], under setting [1], the IC50 is greater than 100 nM.
Same read-out and setting: the value for `CC[C@H]1CN(c2ncc([N+](=O)[O-])cc2Cl)CCN1C1CCN(Cc2ccc(Cl)cc2-c2nnc(Br)[nH]2)CC1` [Compound 230] was greater than 100 nM; that for `Cc1cc(Nc2c(NCC(F)(F)F)c(=O)c2=O)cnc1N1C[C@@H](C)N(C2CCN(C(=O)c3c(C)noc3C)CC2)C[C@@H]1C` [Compound 165] was greater than 100 nM; that for `CC[C@H]1CN(c2ncc(NS(C)(=O)=O)cc2Cl)CCN1C1CCN(Cc2ccc(Cl)cc2NC)CC1` [Compound 14] was less than 25 nM.
Turning to `CC1CCCC(N2CCC(N3C[C@H](C)N(c4ncc(Nc5c(NCC(F)(F)F)c(=O)c5=O)cc4Cl)C[C@H]3C)CC2)C1` (stereo partly shown) [Compound 176], under setting [1], the IC50 was greater than 100 nM.
In the case of `CC[C@H]1CN(c2ccc([N+](=O)[O-])cc2Cl)CCN1C1CCN(Cc2ccc(Cl)cc2)CC1` [Compound 216], the IC50 under setting [1] is greater than 100 nM.
For the molecule `CC[C@H]1CN(c2ncc(NS(C)(=O)=O)cc2Cl)CCN1C1CCN(Cc2ccc(F)c(F)c2)CC1` [Compound 21], the IC50 under setting [1] was less than 25 nM.
Turning to `CC[C@H]1CN(c2ncc(NS(C)(=O)=O)cc2Cl)CCN1C1CCN(Cc2ccc(Cl)cc2N)CC1` [Compound 9], under setting [1], the IC50 is less than 25 nM.
Turning to `C[C@H]1CN(c2ncc(NC(=O)C3CC3)cc2Cl)CCN1C1CCN(Cc2ccc(Cl)cc2)CC1` [Compound 184], the IC50 under setting [1] was less than 25 nM.
Consider `CC[C@H]1CN(c2ncc(NS(=O)(=O)c3ccc(Cl)cc3)cc2Cl)CCN1C1CCN(Cc2ccc(Cl)cc2F)CC1` [Compound 46], for which the IC50 under setting [1] is greater than 100 nM.
As to `CC[C@H]1CN(c2ncc(Nc3c(NC4CC4)c(=O)c3=O)cc2Cl)CCN1C1CCN(Cc2ccc(Cl)cc2[N+](=O)[O-])CC1` [Compound 99], under setting [1], the IC50 is less than 25 nM.
`CC[C@H]1CN(c2ncc(NC(=O)NC)cc2Cl)CCN1C1CCN(Cc2ccc(Cl)cc2F)CC1` [Compound 182]: under setting [1], the IC50 was less than 25 nM.
With `C[C@@H]1CN(c2ncc(Nc3c(NCC(F)(F)F)c(=O)c3=O)cc2Cl)[C@@H](C)CN1C1CCN(Cc2ccc(Br)cc2)CC1` [Compound 125], under setting [1], the IC50 was greater than 100 nM.
Regarding `CC[C@H]1CN(c2ncc(N(C)c3c(NC4CC4)c(=O)c3=O)cc2Cl)CCN1C1CCN(C(CO)c2ccc(Cl)cc2)CC1` (stereo partly shown) [Compound 108], the IC50 under setting [1] is 25 to 100 nM.
On to `C[C@@H]1CN(c2ncc(Nc3c(NCC(F)(F)F)c(=O)c3=O)cc2Cl)[C@@H](C)CN1C1CCN(Cc2ccc(Cl)cc2)CC1` [Compound 98], for which, under setting [1], the IC50 was less than 25 nM.
With `CC[C@H]1CN(c2ncc(Nc3c(NCC(=O)OC(C)(C)C)c(=O)c3=O)cc2Cl)CCN1C1CCN([C@H](CO)c2ccc(Cl)cc2)CC1` [Compound 110], the IC50 under setting [1] lay within 25 to 100 nM.
In the case of `CC[C@H]1CN(c2ncc(NC(=O)NC3CC3)cc2Cl)CCN1C1CCN(Cc2ccc(Cl)cc2F)CC1` [Compound 185], under setting [1], the IC50 was less than 25 nM.
For the molecule `CC[C@H]1CN(c2ncc(NC3=NS(=O)(=O)N=C3NCC3CC3)cc2Cl)CCN1C1CCN(Cc2ccc(Cl)cc2F)CC1` [Compound 246], under setting [1], the IC50 is less than 25 nM.
The same measure, in the same setting: then `C[C@@H]1CN(c2ncc(Nc3c(NCC(F)(F)F)c(=O)c3=O)cc2Cl)[C@@H](C)CN1C1CCN(Cc2ccc(C#Cc3ccccc3)cc2)CC1` [Compound 126], with greater than 100 nM; and `CC[C@H]1CN(c2ncc(NC3=NS(=O)(=O)N=C3N)cc2Cl)CCN1C1CCN(Cc2ccc(Cl)cc2-c2ncon2)CC1` [Compound 265], with greater than 100 nM; and `COc1ccccc1CN1CCC(N2C[C@H](C)N(c3ncc(Nc4c(NCC(F)(F)F)c(=O)c4=O)cc3Cl)C[C@H]2C)CC1` [Compound 154], with greater than 100 nM.
As to `Cc1ccc(CN2CCC(N3CCN(c4ncc(NS(C)(=O)=O)cc4Cl)C[C@@H]3C)CC2)c(C)c1` [Compound 49], the IC50 under setting [1] is greater than 100 nM.
Turning to `CC[C@H]1CN(c2ncc(NC3=NS(=O)(=O)N=C3NCC(=O)O)cc2Cl)CCN1C1CCN(Cc2ccc(Cl)cc2F)CC1` [Compound 280], the IC50 under setting [1] was greater than 100 nM.
For the molecule `CC[C@H]1CN(c2ncc(NS(N)(=O)=O)cc2Cl)CCN1C1CCN(C(CO)c2ccc(Cl)cc2)CC1` (stereo partly shown) [Compound 3], the IC50 under setting [1] was less than 25 nM.
For `CC[C@H]1CN(c2ncc(NS(C)(=O)=O)cc2Cl)CCN1C1CCN(C(C(=O)OC)c2ccc(Cl)cc2)CC1` (stereo partly shown) [Compound 39], the IC50 under setting [1] was 25 to 100 nM.
As for `CC[C@H]1CN(c2ncc(NC3=NS(=O)(=O)N=C3NC3CC3)cc2Cl)CCN1C1CCN(Cc2ccc(Cl)cc2-c2ncon2)CC1` [Compound 249], the IC50 under setting [1] was less than 25 nM.
With `CC[C@H]1CN(c2ncc(NC3=NS(=O)(=O)N=C3NC3CC3)cc2Cl)CCN1C1CCN(Cc2ccc(C#N)cc2)CC1` [Compound 248], the IC50 under setting [1] is less than 25 nM.
The same measure, in the same setting: then `CC[C@H]1CN(c2ncc(Nc3c(NCC(N)=O)c(=O)c3=O)cc2Cl)CCN1C1CCN([C@H](CO)c2ccc(Cl)cc2)CC1` [Compound 103], with 25 to 100 nM.
`CC[C@H]1CN(c2ncc(NS(C)(=O)=O)cc2Cl)CCN1C1CCN(Cc2ccc(Cl)cc2OC)CC1` [Compound 1]: the IC50 under setting [1] is less than 25 nM and the IC50 (value given in the text as example, read-out: IC50 value) stood at 0.8 nM.
As for `CC[C@H]1CN(c2ncc(NS(C)(=O)=O)cc2Cl)CCN1C1CCN(Cc2cccs2)CC1` [Compound 58], the IC50 under setting [1] was greater than 100 nM.
With `C[C@H]1CN(c2ncc(NC(=O)C3CCCCC3)cc2Cl)CCN1C1CCN(Cc2ccc(Cl)cc2)CC1` [Compound 194], the IC50 under setting [1] is greater than 100 nM.
With `CC[C@H]1CN(c2ncc(N/C(=N/C#N)NC)cc2Cl)CCN1C1CCN(Cc2ccc(Cl)cc2F)CC1` [Compound 205], under setting [1], the IC50 fell in the range of 25 to 100 nM.
As to `CC[C@H]1CN(c2ncc(NS(C)(=O)=O)cc2Cl)CCN1C1CCN(Cc2cc(Br)cs2)CC1` [Compound 44], the IC50 under setting [1] was greater than 100 nM.
Same read-out and setting: then `CCNC(=O)Nc1ccc(N2CCN(C3CCN(Cc4ccc(Cl)cc4)CC3)[C@@H](CC)C2)c(Cl)c1` [Compound 192], with greater than 100 nM; and `C[C@@H]1CN(c2ncc(Nc3c(NCC(F)(F)F)c(=O)c3=O)cc2Cl)[C@@H](C)CN1C1CCN(C2CCCC2)CC1` [Compound 162], with greater than 100 nM.
On to `CC[C@H]1CN(c2ncc(NS(C)(=O)=O)cc2Cl)CCN1C1CCN(Cc2ccc(Cl)cc2O)CC1` [Compound 34], for which, under setting [1], the IC50 was in the range of 25 to 100 nM.
The same measure, in the same setting: the value for `C[C@@H]1CN(c2ncc(Nc3c(NCC(F)(F)F)c(=O)c3=O)cc2Cl)[C@@H](C)CN1C1CCN(Cc2cccc(C#N)c2)CC1` [Compound 143] was greater than 100 nM.
